In PubChem BioAssay (NCI):
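Cells were grown in 96-well plates and exposed to each compound for 48 hours at five concentrations; endpoints were interpolated linearly between bracketing concentrations, or set to the highest concentration if not reached. GI50: concentration for 50% inhibition of growth. Definition used: TGI = concentration required for complete inhibition of growth.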

What was measured:
Assay in all cases: DTP human tumour cell line panel, 48 h
[1] = system: K-562 leukemia
[2] = system: SW-620 colon
[3] = system: CCRF-CEM leukemia
[4] = system: OVCAR-4 ovarian
[5] = system: SK-MEL-5 melanoma
[6] = system: UACC-257 melanoma
[7] = system: HT29 colon
[8] = system: SF-268 CNS
[9] = system: RPMI-8226 leukemia
[10] = system: MDA-MB-231 breast

Row | Compound | TGI [1] [µM] | TGI [2] [µM] | TGI [3] [µM] | TGI [4] [µM] | TGI [5] [µM] | TGI [6] [µM] | TGI [7] [µM] | TGI [8] [µM] | TGI [9] [µM] | GI50 [1] [µM] | GI50 [2] [µM] | GI50 [3] [µM] | GI50 [4] [µM] | GI50 [5] [µM] | GI50 [6] [µM] | GI50 [7] [µM] | GI50 [8] [µM] | GI50 [9] [µM] | GI50 [10] [µM] | TGI [10] [µM]
1 | CSC(=S)N(C)NC(=O)c1cccc(C(=O)NN(C)C(=S)SC)n1 | > 100 | > 100 | > 100 | 41 | > 100 | 56.9 | > 100 | 43.9 | > 100 |  |  |  |  |  |  |  |  |  |  | 
2 | CNC1=C(C)C(=O)C(C)=C(C(C)(C)CC(=O)n2cc(F)c(=O)[nH]c2=O)C1=O | > 100 | > 100 | > 100 | > 100 | > 100 | > 100 | > 100 | > 100 | > 100 |  |  |  |  |  |  |  |  |  |  | 
3 | CN(C)c1nc(N(C)C)nc(N(C)CN(C)c2nc(N(C)C)nc(N(C)C)n2)n1 | > 100 | > 100 | > 100 | > 100 | > 100 | > 100 | > 100 | > 100 | > 100 |  |  |  |  |  |  |  |  |  |  | 
4 | COc1cc(NCC(C#N)C#N)ccc1N=Nc1ccc([N+](=O)[O-])cc1 | > 100 | > 100 | > 100 | > 100 | > 100 | > 100 | > 100 | > 100 | > 100 |  |  |  |  |  |  |  |  |  |  | 
5 | CC1SC2=NC3=C(c4ccccc4C3=O)C(c3ccc(Br)cc3)N2C1=O (centres undefined) | > 100 | > 100 | > 100 | > 100 | > 100 | > 100 | > 100 | > 100 | > 100 |  |  |  |  |  |  |  |  |  |  | 
6 | O=C1c2cnccc2Cc2cccc3c2N1c1ccccc1S3 | > 100 | 97.9 | 85 | 68.4 | 39 | 59 | 74.8 | > 100 | 88.1 |  |  |  |  |  |  |  |  |  |  | 
7 | CCC[CH2][Sn]1([CH2]CCC)[O]C(=O)C[S]1 | 3.59 | 3.13 | 1.57 | 4.67 | 3 | 3.27 | 8.2 | 4.83 | 3.57 | 0.405 | 0.984 | 0.324 | 2.16 | 1.44 | 1.4 | 2.83 | 1.67 | 0.455 |  | 
8 | C[C@@H]1CN(Cc2ccc(/C=C/c3n[nH]c4ccc5nc(-c6cn[nH]c6C(F)(F)F)c6c(c5c34)CCCC6)cc2)C[C@H](C)O1 | 24.7 | 10.1 | 34.2 | 24.9 | 24.7 | 30.9 | 7.82 | 19.1 |  | 2.81 | 2.02 | 0.718 | 5.03 | 12.2 | 13.3 | 2.77 | 4.21 |  | 3.24 | 15.5
9 | BrP(NC1CCCCCC1)(c1ccccc1)(c1ccccc1)c1ccccc1 | > 100 | 13.6 | 29 |  | 3.18 | 6.3 | 4.66 | 11.1 | 5.41 |  |  |  |  |  |  |  |  |  |  | 16
10 | CCOC(=O)CNC(SC)=C(C#N)C#N | > 100 | > 100 | > 100 | > 100 | > 100 | > 100 | > 100 | > 100 | > 100 |  |  |  |  |  |  |  |  |  |  | 
11 | N/C(=N\OC(=O)NC(Cl)=C(Cl)Cl)c1cc(C(F)(F)F)cc(C(F)(F)F)c1 |  | 40.3 | 32.2 |  | 89.6 | 31.1 | 34.4 | 45.6 | 34.8 |  |  |  |  |  |  |  |  |  |  | 34.2
12 | C#CCOCn1cnc2ncnc(Cl)c21 | > 100 | > 100 | > 100 | > 100 | > 100 | > 100 | > 100 | > 100 | > 100 |  |  |  |  |  |  |  |  |  |  | 
13 | O=C1Cc2ccccc2N1/N=C\c1ccc(O)cc1 | > 100 | > 100 | > 100 | > 100 | > 100 | > 100 | > 100 | > 100 | > 100 |  |  |  |  |  |  |  |  |  |  | 
14 | Cn1cc(-c2csc(-c3cn(CCN4CCOCC4)c4ccc(F)cc34)n2)c2cccnc21 | 10.3 | 57.5 | 9.18 |  | 3.56 | 28.9 | 17.7 | > 100 | 4.96 | 2.94 | 3.62 | 3.07 |  | 1.85 | 4.54 | 2.85 | 2.82 | 1.68 | 2.51 | 8.48
15 | C(=C1\CCC/C(=C/c2ccccc2)C1=NNc1ccccc1)/c1ccccc1 | > 100 | > 100 | > 100 | > 100 | > 100 | > 100 | > 100 | > 100 | > 100 |  |  |  |  |  |  |  |  |  |  | 
16 | COc1ccc(/C=C/c2nc(N3CCOCC3)c3cc(F)c(F)cc3n2)cc1OC |  | > 100 | > 100 | > 100 | 2.81 | > 100 |  | > 100 | > 100 |  | 6.1 | 4.7 | 1.43 | 1.18 | 4.41 |  | 9.85 | 2.7 | 6.56 | > 100
17 | O=C(CCCn1ccnc1[N+](=O)[O-])NCCn1cnc([N+](=O)[O-])c1 | > 100 | > 100 | > 100 | > 100 | > 100 | > 100 | > 100 | > 100 | > 100 |  |  |  |  |  |  |  |  |  |  | 
18 | COc1cc(/C=C/C(=O)c2c(C)n([O-])c3cc(C)c(C)cc3[n+]2=O)cc(OC)c1OC | > 100 | 40.7 | > 100 | 48 | 34 | 48.8 | 34.7 | 32.3 |  | 18.7 | 13.6 | 5.68 | 16.5 | 13.9 | 16.7 | 18.6 | 12.5 |  | 17 | 44.7
